Source: ChEMBL document CHEMBL5357077, “Synthesis and Biological Evaluation of β-Lactam Derivatives Targeting Speckle-Type POZ Protein (SPOP)” (ACS Med Chem Lett, 2024)
Active and inactive are the calls of the source. The rule behind the calls is not given here.

Key:
[1] = biological target: T1, Speckle-type POZ protein (Homo sapiens, UniProt O43791); assay: (§1) Inhibition of GST-tagged human SPOP MATH domain (28 to 166 residues) expressed in Escherichia coli BL21 CodonPlus (DE3)-RIPL cells using FITC-LACDEVTSTTSSSTA peptide as substrate assessed as inhibition of substrate binding to SPOP preincubated with compound for 30 mins followed by substrate addition and measured immediately by fluorescence polarization assay
[2] = biological target: T1, Speckle-type POZ protein; assay: as §1, with “Potency index, ratio of 230D7 IC50 to test compound IC50 for inhibition” for “Inhibition”
[3] = tested on: 786-0; assay: Inhibition of colony formation in human 786-0 cells at 0.4 to 50 uM incubated for 10 to 14 days by crystal violet staining based imaging analysis; format: functional, cell-based; conditions: dose 0.4-50 µM, time 10-14 day
[4] = tested on: OS-RC-2; assay: Inhibition of colony formation in human OS-RC-2 cells at 0.4 to 50 uM incubated for 10 to 14 days by crystal violet staining based imaging analysis; format: functional, cell-based; conditions: dose 0.4-50 µM, time 10-14 day
[5] = tested on: HK-2; assay: Cytotoxicity against HK-2 cells assessed as inhibition of cell proliferation measured after 72 hrs by Celltiter Glo luminescent cell viability assay; format: toxicity, cell-based; conditions: human, hk-2, 72 h
[6] = tested on: A498; assay: Inhibition of colony formation in human A498 cells at 0.4 to 50 uM incubated for 10 to 14 days by crystal violet staining based imaging analysis; format: functional, cell-based; conditions: dose 0.4-50 µM, time 10-14 day
[7] = biological target: T1, Speckle-type POZ protein; assay: Inhibition of GST-tagged human SPOP MATH domain (28 to 166 residues) expressed in Escherichia coli BL21 CodonPlus (DE3)-RIPL cells using Myc-PTEN as substrate assessed as disruption of SPOP binding to substrate at 1 to 40 uM incubated for 2 hrs by GST pull-down assay; conditions: dose 1-40 µM
[8] = tested on: 786-0; assay: Antiproliferative activity against human 786-0 cells assessed as inhibition of cell proliferation measured after 72 hrs by Celltiter Glo luminescent cell viability assay; format: functional, cell-based
[9] = tested on: 769-P; assay: Inhibition of colony formation in human 769-P cells at 0.4 to 50 uM incubated for 10 to 14 days by crystal violet staining based imaging analysis; format: functional, cell-based; conditions: dose 0.4-50 µM, time 10-14 day
[10] = biological target: T1, Speckle-type POZ protein; assay: Binding affinity to GST-tagged human SPOP MATH domain (28 to 166 residues) expressed in Escherichia coli BL21 CodonPlus (DE3)-RIPL cells assessed as equilibrium dissociation constant by SPR analysis
[11] = biological target: T1, Speckle-type POZ protein; assay: Inhibition of GST-tagged human SPOP MATH domain (28 to 166 residues) expressed in Escherichia coli BL21 CodonPlus (DE3)-RIPL cells using Myc-DUSP7 as substrate assessed as disruption of SPOP binding to substrate at 1 to 40 uM incubated for 2 hrs by GST pull-down assay; conditions: dose 1-40 µM

T1 sequence (O43791 whole entry, the tested form may be a part): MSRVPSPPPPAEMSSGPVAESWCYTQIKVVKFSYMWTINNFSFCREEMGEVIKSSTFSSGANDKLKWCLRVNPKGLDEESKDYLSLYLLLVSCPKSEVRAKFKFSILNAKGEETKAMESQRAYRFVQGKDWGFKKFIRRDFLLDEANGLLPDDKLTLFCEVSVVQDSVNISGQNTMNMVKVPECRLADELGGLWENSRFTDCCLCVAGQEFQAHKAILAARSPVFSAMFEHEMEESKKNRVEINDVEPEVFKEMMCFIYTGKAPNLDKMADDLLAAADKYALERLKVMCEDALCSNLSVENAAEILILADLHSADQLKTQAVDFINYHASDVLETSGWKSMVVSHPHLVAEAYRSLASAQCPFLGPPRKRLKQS

SMILES | IC50 [1] | other results
C=CC1=C(C(=O)O)N2C(=O)[C@@H](NC(=O)c3ccco3)[C@H]2SC1 | 81.2 µM | 
O=C(O)C1=C(Cl)CS[C@@H]2[C@H](NC(=O)c3ccc(COc4ccc(Br)cc4Cl)o3)C(=O)N12 | 53.3 µM | 
C=CC1=C(C(=O)O)N2C(=O)[C@@H](NC(=O)c3ccc(COc4ccc(Cl)cc4Br)o3)[C@H]2SC1 | > 100 µM | 
C=CC1=C(C(=O)O)N2C(=O)[C@@H](NC(=O)c3ccc(COc4ccc(C#N)cc4Cl)o3)[C@H]2SC1 | 11.7 µM | 
C=CC1=C(C(=O)O)N2C(=O)[C@@H](NC(=O)c3ccc(Br)o3)[C@H]2SC1 | > 100 µM | 
C=CC1=C(C(=O)O)N2C(=O)[C@@H](NC(=O)c3ccc(COc4ccccc4)o3)[C@H]2SC1 | 6.33 µM | Ratio IC50 [2]: 2
C=CC1=C(C(=O)O)N2C(=O)[C@@H](NC(=O)c3ccc(C)o3)[C@H]2SC1 | 20.7 µM | 
C=CC1=C(C(=O)O)N2C(=O)[C@@H](NC(=O)c3ccc(COCC)o3)[C@H]2SC1 | > 100 µM | 
O=C(O)C1=CCS[C@@H]2[C@H](NC(=O)c3ccc(COc4ccc(Br)cc4Cl)o3)C(=O)N12 | 42.1 µM | 
COCC1=C(C(=O)O)N2C(=O)[C@@H](NC(=O)c3ccc(COc4ccc(Br)cc4Cl)o3)[C@H]2SC1 | > 100 µM | 
C=CC1=C(C(=O)O)N2C(=O)[C@@H](NC(=O)c3ccc(COc4ccc(F)cc4Cl)o3)[C@H]2SC1 | 98 µM | 
C=CC1=C(C(=O)O)N2C(=O)[C@@H](NC(=O)c3ccc(COc4cccc(Cl)c4)o3)[C@H]2SC1 | > 100 µM | 
C=CC1=C(C(=O)O)N2C(=O)[C@@H](NC(=O)c3ccc(C(=O)OC)o3)[C@H]2SC1 | > 100 µM | 
Cn1nnnc1SCC1=C(C(=O)O)N2C(=O)[C@@H](NC(=O)c3ccc(COc4ccc(Br)cc4Cl)o3)[C@H]2SC1 | 34.6 µM | 
C=CC1=C(C(=O)O)N2C(=O)[C@@H](NC(=O)c3ccc(COc4c(C)cc(Br)cc4Cl)o3)[C@H]2SC1 | > 100 µM | 
C=CC1=C(C(=O)O)N2C(=O)[C@@H](NC(=O)c3ccc(CO)o3)[C@H]2SC1 | > 100 µM | 
C=CC1=C(C(=O)O)N2C(=O)[C@@H](NC(=O)c3ccc(CF)o3)[C@H]2SC1 | 20.9 µM | 
CC1=C(C(=O)O)N2C(=O)[C@@H](NC(=O)c3ccc(COc4ccc(Br)cc4Cl)o3)[C@H]2SC1 | > 100 µM | 
C=CC1=C(C(=O)O)N2C(=O)[C@@H](NC(=O)c3ccc(COc4ccc(Br)cc4Cl)s3)[C@H]2SC1 | 15.1 µM | 
C=CC1=C(C(=O)O)N2C(=O)[C@@H](NC(=O)c3ccc(COC)o3)[C@H]2SC1 | 26 µM | 

SMILES | IC50 [1] | other results
C=CC1=C(C(=O)O)N2C(=O)[C@@H](NC(=O)c3ccc(C(=O)Nc4ccc(Br)cc4Cl)o3)[C@H]2SC1 | 52.1 µM | 
C=CC1=C(C(=O)O)N2C(=O)[C@@H](NC(=O)c3ccc(COc4ccc(F)cc4)o3)[C@H]2SC1 | 7.03 µM | 
O=C(O)C1=C(CO)CS[C@@H]2[C@H](NC(=O)c3ccc(COc4ccc(Br)cc4Cl)o3)C(=O)N12 | > 100 µM | 
Cc1nnc(SCC2=C(C(=O)O)N3C(=O)[C@@H](NC(=O)c4ccc(COc5ccc(Br)cc5Cl)o4)[C@H]3SC2)s1 | 32.3 µM | 
C/C=C/C1=C(C(=O)O)N2C(=O)[C@@H](NC(=O)c3ccc(COc4ccc(Br)cc4Cl)o3)[C@H]2SC1 | 52.6 µM | 
CC(=O)OCC1=C(C(=O)O)N2C(=O)[C@@H](NC(=O)c3ccc(COc4ccc(Br)cc4Cl)o3)[C@H]2SC1 | 12.5 µM | 
CC1(C)S[C@@H]2[C@H](NC(=O)c3ccc(COc4ccc(Br)cc4Cl)o3)C(=O)N2[C@H]1C(=O)O | 20.5 µM | 
C=CC1=C(C(=O)O)N2C(=O)[C@@H](NC(=O)c3ccc(COc4ccc(Br)cc4)o3)[C@H]2SC1 | > 100 µM | 
C=CC1=C(C(=O)O)N2C(=O)[C@@H](NC(=O)c3ccc(COc4cccnc4)o3)[C@H]2SC1 | 74.4 µM | 
C=CC1=C(C(=O)O)N2C(=O)[C@@H](NC(=O)c3ccc(CCl)o3)[C@H]2SC1 | 0.58 µM | inhibition [3]: Active; inhibition [4]: Active; Ratio IC50 [2]: 22; Activity [5]: Non-Toxic; inhibition [6]: Active; inhibition [7]: Active; Activity [8]: Active; inhibition [9]: Active; Kd [10]: 1.54 µM; inhibition [11]: Active
C=CC1=C(C(=O)O)N2C(=O)[C@@H](NC(=O)c3cccc(COc4ccc(Br)cc4Cl)c3)[C@H]2SC1 | 30.1 µM | 
C=CC1=C(C(=O)O)N2C(=O)[C@@H](NC(=O)c3ccc(CBr)o3)[C@H]2SC1 | > 100 µM | 
C=CC1=C(C(=O)O)N2C(=O)[C@@H](NC(=O)c3ccc(COc4ccc(C#N)cc4)o3)[C@H]2SC1 | > 100 µM | 
C=CC1=C(C(=O)O)N2C(=O)[C@@H](NC(=O)c3ccc(Cl)o3)[C@H]2SC1 | > 100 µM | 
C=CC1=C(C(=O)O)N2C(=O)[C@@H](NC(=O)c3ccc(CNc4ccc(Br)cc4Cl)o3)[C@H]2SC1 | > 100 µM | 
C[C@H]1[C@H](NC(=O)c2ccc(COc3ccc(Br)cc3Cl)o2)C(=O)N1S(=O)(=O)O | > 100 µM | 
C=CC1=C(C(=O)O)N2C(=O)[C@@H](NC(=O)c3ccc(COc4ccc(Br)cc4Cl)o3)[C@H]2SC1 | 5.35 µM | Ratio IC50 [2]: 3
C=CC1=C(C(=O)O)N2C(=O)[C@@H](NC(=O)c3ccc(COc4ccccc4Cl)o3)[C@H]2SC1 | > 100 µM | 
C=CC1=C(C(=O)O)N2C(=O)[C@@H](NC(=O)c3ccc(COCc4ccc(Br)cc4Cl)o3)[C@H]2SC1 | 66 µM | 
